Among the data in ChEMBL document CHEMBL4014293, “Highly oxygenated antiausterity agents from the leaves of Uvaria dac” (2017) are Activity and PC50 values, retold here.

The subject of test [1] is PANC-1. The test can be described thus: Antiausteritic activity against human PANC1 cells in nutrient deprived medium after 24 hrs by WST8 assay. It counts as functional. For orientation: Tetrazolium assays rely on reduction of a dye to a coloured formazan, in cell work by metabolically active cells.
A further test deals with PSN1. Description: Antiausteritic activity against human PSN1 cells in nutrient deprived medium after 24 hrs by WST8 assay. Format: functional.
The test system of a further test is CAPAN-1. Description: Antiausteritic activity against human Capan1 cells in nutrient deprived medium after 24 hrs by WST8 assay. Format: functional.
The next test concerns KLM1. The test can be described thus: Antiausteritic activity human KLM1 cells in nutrient deprived medium after 24 hrs by WST8 assay. Format: functional.
The test system of a further test is MIA PaCa-2. Description: Antiausteritic activity against human MIAPaCa2 cells in nutrient deprived medium after 24 hrs by WST8 assay. Format: functional.
For test [2], the system named is PANC-1. The test can be described thus: Antiausteritic activity against human PANC1 cells in nutrient deprived medium assessed as induction of morphological changes at 25 to 50 uM after 24 hrs by ethidium bromide/acridine orange staining based fluorescent/phase contrast microscopic method. Format: functional, cell-based.

The source made the active and inactive calls. The rule behind the calls is not given here.

Consider `CCCCCCCCCCCCCCCCCC(=O)O[C@@H]1C=C(COC(=O)c2ccccc2)[C@@H](O)[C@H](O)[C@H]1OC(=O)c1ccccc1`, for which the Activity entry in the test with PANC-1 [1], in the test on PSN1, with CAPAN-1, in the test on KLM1 and in the test on MIA PaCa-2 was “Dose-dependent effect” each time.

In the case of `O=C(OCC1=C[C@@H](OC(=O)c2ccccc2)[C@H](OC(=O)c2ccccc2)[C@@H](O)[C@@H]1O)c1ccccc1`, the Activity entry in the test on PANC-1 [1], with PSN1, in the test on CAPAN-1, in the test with KLM1 and in the test on MIA PaCa-2 was “Dose-dependent effect” each time.

As for `CCCCCCCCCCCCCCCCCC(=O)O[C@@H]1C=C(COC(=O)c2ccccc2)[C@@H](O)[C@H](OC(=O)c2ccccc2)[C@H]1O`, the Activity entry in the test with PANC-1 [1], with PSN1, with CAPAN-1, in the test on KLM1 and with MIA PaCa-2 was “Dose-dependent effect” throughout.

As to `O=C(OCC1=C[C@@H](OC(=O)c2ccccc2)[C@H](O)[C@@H](OC(=O)c2ccccc2)[C@@H]1O)c1ccccc1`, the Activity entry with PANC-1 [1], in the test on PSN1, in the test on CAPAN-1, with KLM1 and in the test on MIA PaCa-2 was “Dose-dependent effect” in each case. The PC50 with PANC-1 [1] is 20.1 µM; with PSN1, 9.7 µM; with CAPAN-1, 73 µM; in the test on MIA PaCa-2, 29.1 µM. Also, the result in the test with PANC-1 [2] was Active.
